Measured values: US5840684A, “Glycopeptide antibiotic derivatives” (Eli Lilly and Company, priority 1995, dated 1998)
Values after ≈ are worked out from the molar mass of the structure shown.

Legend:
[1] = tested on: Staphylococcus aureus SA1199B; type: cell-based
Experimental: (§1) The MIC's were determined using a standard broth micro-dilution assay.

[2] = tested on: Staphylococcus aureus S13E; type: cell-based
Experimental: as §1

[3] = tested on: Staphylococcus haemolyticus 105; assay: broth micro-dilution MIC; type: cell-based
Experimental: (§2) The formula I compounds have in vitro and in vivo activity against Gram-positive pathogenic bacteria. The MIC's were determined using a standard broth micro-dilution assay.

[4] = tested on: Streptococcus pneumoniae P1; assay: broth micro-dilution MIC; type: cell-based
Experimental: as §2

[5] = tested on: Enterococcus gallinarum 245; assay: broth micro-dilution MIC; type: cell-based; conditions: Enterococcus gallinarum 245
Experimental: as §2

[6] = tested on: Haemophilus influenzae RD; assay: broth micro-dilution MIC; type: cell-based; conditions: Haemophilus influenzae RD
Experimental: as §2

Entercoccus faecium 180 = assay: broth micro-dilution MIC; type: cell-based; conditions: Entercoccus faecium 180
Experimental: as §2

Entercoccus faecium 2041 = assay: broth micro-dilution MIC; type: cell-based; conditions: Entercoccus faecium 2041
Experimental: as §2

[7] = tested on: Staphylococcus haemolyticus 415; assay: broth micro-dilution MIC; type: cell-based
Experimental: as §2

[8] = tested on: Staphylococcus aureus X400; assay: broth micro-dilution MIC; type: cell-based
Experimental: as §1

[9] = tested on: Staphylococcus aureus SA1199; assay: broth micro-dilution MIC; type: cell-based
Experimental: as §1

[10] = tested on: Streptococcus pyogenes C203; assay: broth micro-dilution MIC; type: cell-based
Experimental: as §1

[11] = tested on: Staphylococcus aureus 447; assay: broth micro-dilution MIC; type: cell-based
Experimental: as §1

[12] = tested on: Staphylococcus aureus X778; assay: broth micro-dilution MIC; type: cell-based
Experimental: as §1

[13] = tested on: Staphylococcus aureus SA1199A; assay: broth micro-dilution MIC; type: cell-based
Experimental: as §1

[14] = tested on: Entercoccus faecium 180-1; assay: broth micro-dilution MIC; type: cell-based
Experimental: as §1

[15] = tested on: Staphylococcus aureus 446; assay: broth micro-dilution MIC; type: cell-based
Experimental: as §1

[16] = tested on: Staphylococcus aureus 489; assay: broth micro-dilution MIC; type: cell-based
Experimental: as §1

[17] = tested on: vancomycin-resistant enterococci; assay: broth micro-dilution, mean geometric MIC; type: cell-based, Enterococcus faecium and Enterococcus faecalis; conditions: enterococci, 24-hour incubation
[18] = tested on: vancomycin-susceptible enterococci; assay: broth micro-dilution, mean geometric MIC; type: cell-based, Enterococcus faecium and Enterococcus faecalis; conditions: enterococci, 24-hour incubation
Entercoccus faecium 276 = assay: broth micro-dilution MIC; type: cell-based
Experimental: as §1

Structure (SMILES) | MIC [1] [µg/mL] | MIC [2] [µg/mL] | MIC [3] [µg/mL] | MIC [4] [µg/mL] | MIC [5] [µg/mL] | MIC [6] [µg/mL] | MIC (Entercoccus faecium 180) [µg/mL] | MIC (Entercoccus faecium 2041) [µg/mL] | MIC [7] [µg/mL] | MIC [8] [µg/mL] | MIC [9] [µg/mL] | MIC [10] [µg/mL] | MIC [11] [µg/mL] | MIC [12] [µg/mL] | MIC [13] [µg/mL] | MIC [14] [µg/mL] | MIC [15] [µg/mL] | MIC [16] [µg/mL] | mean geometric MIC, Vancomycin Resistant Strains [17] [µg/mL] | mean geometric MIC, Vancomycin Sensitive Strains [18] [µg/mL] | also measured
CNC(CC(C)C)C(=O)NC1C(=O)NC(CC(N)=O)C(=O)NC2C(=O)NC3C(=O)NC(C(=O)NC(C(=O)O)c4cc(O)cc(O)c4-c4cc3ccc4O)C(OC3CC(C)(N)C(O)C(C)O3)c3ccc(c(Cl)c3)Oc3cc2cc(c3OC2OC(CO)C(O)C(O)C2OC2CC(C)(NCCCCCCc3ccccc3)C(O)C(C)O2)Oc2ccc(cc2Cl)C1O (stereo not shown) [Compound 196] | 0.5 (≈ 0.285 µM) | 1 (≈ 0.571 µM) | 0.5 (≈ 0.285 µM) | ≤ 0.06 | 1 (≈ 0.571 µM) | 32 (≈ 18.3 µM) | 0.5 (≈ 0.285 µM) | ≤ 0.06 | 1 (≈ 0.571 µM) | 0.5 (≈ 0.285 µM) | 0.5 (≈ 0.285 µM) | ≤ 0.06 | 0.5 (≈ 0.285 µM) | 1 (≈ 0.571 µM) | ≤ 0.06 | ≤ 0.06 | 0.5 (≈ 0.285 µM) | 1 (≈ 0.571 µM) | 1.7 | 0.027 | 
CNC(CC(C)C)C(=O)NC1C(=O)NC(CC(N)=O)C(=O)NC2C(=O)NC3C(=O)NC(C(=O)NC(C(=O)O)c4cc(O)cc(O)c4-c4cc3ccc4O)C(OC3CC(C)(N)C(O)C(C)O3)c3ccc(c(Cl)c3)Oc3cc2cc(c3OC2OC(CO)C(O)C(O)C2OC2CC(C)(NCCc3ccc4ccccc4c3)C(O)C(C)O2)Oc2ccc(cc2Cl)C1O (stereo not shown) [Compound 179] |  |  | 0.5 (≈ 0.286 µM) | ≤ 0.06 | 1 (≈ 0.573 µM) | 4 (≈ 2.29 µM) | ≤ 0.06 | ≤ 0.06 | 1 (≈ 0.573 µM) | ≤ 0.06 | 1 (≈ 0.573 µM) | ≤ 0.06 |  | ≤ 0.06 | ≤ 0.06 | ≤ 0.06 |  | ≤ 0.06 | 1.7 | 0.060 | MIC (Entercoccus faecium 276): ≤ 0.06 µg/mL
CNC(CC(C)C)C(=O)NC1C(=O)NC(CC(N)=O)C(=O)NC2C(=O)NC3C(=O)NC(C(=O)NC(C(=O)O)c4cc(O)cc(O)c4-c4cc3ccc4O)C(OC3CC(C)(N)C(O)C(C)O3)c3ccc(c(Cl)c3)Oc3cc2cc(c3OC2OC(CO)C(O)C(O)C2OC2CC(C)(NCc3ccc(OC(F)F)cc3)C(O)C(C)O2)Oc2ccc(cc2Cl)C1O (stereo not shown) [Compound 72] | ≤ 0.06 | ≤ 0.06 | 1 (≈ 0.572 µM) |  | 4 (≈ 2.29 µM) | 32 (≈ 18.3 µM) | 0.5 (≈ 0.286 µM) | ≤ 0.06 | 4 (≈ 2.29 µM) |  | 1 (≈ 0.572 µM) |  | 1 (≈ 0.572 µM) |  | ≤ 0.06 | ≤ 0.06 | 2 (≈ 1.14 µM) | ≤ 0.06 | 4.7 | 0.28 | MIC (Entercoccus faecium 276): ≤ 0.06 µg/mL
CNC(CC(C)C)C(=O)NC1C(=O)NC(CC(N)=O)C(=O)NC2C(=O)NC3C(=O)NC(C(=O)NC(C(=O)O)c4cc(O)cc(O)c4-c4cc3ccc4O)C(OC3CC(C)(N)C(O)C(C)O3)c3ccc(c(Cl)c3)Oc3cc2cc(c3OC2OC(CO)C(O)C(O)C2OC2CC(C)(NCCCCCCCCOc3ccc(OC)cc3)C(O)C(C)O2)Oc2ccc(cc2Cl)C1O (stereo not shown) [Compound 200] | 1 (≈ 0.547 µM) | 0.5 (≈ 0.274 µM) | 1 (≈ 0.547 µM) | ≤ 0.06 | 2 (≈ 1.09 µM) | 32 (≈ 17.5 µM) |  | ≤ 0.06 | 2 (≈ 1.09 µM) | 1 (≈ 0.547 µM) | 1 (≈ 0.547 µM) | ≤ 0.06 | 0.5 (≈ 0.274 µM) | 0.5 (≈ 0.274 µM) | ≤ 0.06 | ≤ 0.06 | 1 (≈ 0.547 µM) |  | 1.4 | 0.041 | MIC (Entercoccus faecium 276): 0.5 µg/mL (≈ 0.274 µM)
